We go through 23 compounds from patent US20220169639A1 (priority 2018, published 2022).

Assay [1] relates to HBeAg (surrogate marker for cccDNA) in HepDES19 cells. Briefly: Engineered HepDES19 primary screen assay (HBeAg ELISA). It counts as cell-based, HBV. The conditions noted are these: Hepatitis B virus, 120 h, HBeAg in culture supernatant, 5 days incubation, read-out: IC50 (HepDES19 primary screen assay, inhibition of extracellular HBeAg level). Summed up: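 HepDES19 cells pre-induced by Tet withdrawal for 8 days, frozen, then seeded and dosed after 24 h with half-log compound dilutions (1% DMSO final). After 5 days at 37 °C, HBeAg measured by ELISA and viability by CCK-8; IC50 from 4-parameter logistic fit.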

Assay [2] concerns HBV (HBsAg) in HBV-infected PHH. Description: Cryopreserved primary human hepatocytes (PHH) HBV infection assay, extracellular HBsAg (CLIA). In kind it is cell-based. The note with it: Hepatitis B virus, Hepatocyte, 216 h, read-out: HBsAg IC50. Here is the method: This assay is used to confirm the anti-HBV effect of the compounds in HBV PHH infection assay. Cryopreserved PHH (BioreclamationIVT, Lot YJM) was thawed at 37° C. and gently transferred into pre-warmed InVitroGRO HT medium (BioreclamationIVT, Cat. S03317). The mixture was centrifuged at 70 relative centrifugal force (RCF) for 3 minutes at RT, and the supernatant was discarded. Pre-warmed InVitroGRO CP medium (BioreclamationIVT, Cat #S03316) was added to the cell pellet to gently re-suspend cells. The cells were seeded at the density of 5.8×10^4 cells per well to collagen I coated 96-well plate (Gibco, Cat. A1142803) with the InVitroGRO CP medium. All plates were incubated at 37° C. with 5% CO2 and 85% humidity.
At 20 hours after plating, the medium was changed to PHH culture medium (Dulbecco's Modified Eagle Medium (DMEM)/F12 (1:1) (Gibco, Cat. 11320-033), 10% fetal bovine serum (Gibco Cat. 10099141), 100 U/mL penicillin, 100 μg/mL streptomycin (Gibco, Cat. 151401-122), 5 ng/mL human epidermal growth factor (Invitrogen Cat. PHG0311L), 20 ng/mL dexamethasone (Sigma, Cat. D4902) and 250 ng/mL human recombinant insulin (Gibco, Cat. 12585-014)). And the cells were incubated at 37° C. with 5% CO2 and 85% humidity for 4 hours. The medium was then changed to pre-warmed PHH culture medium containing 4% polyethylene glycol (PEG) MW8000 (Sigma, Cat. P1458-50ML) and 1% DMSO (Sigma, Cat. D2650). 5.8×10^6 genomic equivalents of HBV were added into the medium.
At 24 hours post-infection, the cells were gently washed with PBS and refreshed with PHH culture medium supplemented with 1% DMSO, and 0.25 mg/mL Matrix gel (Corning, Cat. 356237) at 200 μL per well. All plates were immediately placed in at 37° C. CO2 incubator. 24 hours later, serial dilutions of compounds made with DMSO were further diluted with the same culture medium (PHH culture medium supplemented with 1% DMSO and 0.25 mg/mL Matrix gel as described above) before they were added to the cells to reach desired final compound concentrations and 1% DMSO concentration. The medium containing the compounds were refreshed every three days.
At 9 days post-compound treatment, extracellular HBsAg level were measured with Chemiluminescence Immuno Assay (CLIA) kit (Autobio, HBsAg Quantitative CLIA). Extracellular HBV DNA was extracted by MagNA Pure 96 system (Roche) and then determined
HBsAg IC50 and HBV DNA IC50 values were derived from the dose-response curve using 4 parameter logistic curve fit method. The compounds of formula (I) have HBsAg IC50<20 μM, particularly <1 μM; and HBV DNA IC50<50 μM. Results of Cryopreserved PHH assay are given in TableBIO2.

As for `O=C(O)C1CCN(CCCOc2cc(Br)ccc2-c2cc(=O)c3cccc(Cl)c3o2)C1` (stereo not shown) [Example 001, 1-[3-[5-bromo-2-(8-chloro-4-oxo-chromen-2-yl)phenoxy]propyl]pyrrolidine-3-carboxylic acid], the IC50 in assay [1] turned out to be 350 nM; in assay [2], 5.43 µM.

For `O=C(O)C1CN(CCCOc2cc(Br)ccc2-c2cc(=O)c3cccc(Cl)c3o2)CCO1` (stereo not shown) [Example 002, 4-[3-[5-bromo-2-(8-chloro-4-oxo-chromen-2-yl)phenoxy]propyl]morpholine-2-carboxylic acid], the results for the IC50 in assay [1] and in assay [2] were 250 nM and 4.01 µM, respectively.

For `O=C(O)[C@@H]1CCN(CCCOc2cc(Br)ccc2-c2cc(=O)c3cccc(Cl)c3o2)C1` [Example 005, (3R)-1-[3-[5-bromo-2-(8-chloro-4-oxo-chromen-2-yl)phenoxy]propyl]pyrrolidine-3-carboxylic acid], the IC50 in assay [1] amounted to 8930 nM; in assay [2] it was 8.34 µM.

`O=C(O)C1CC(NCCCOc2cc(C(F)(F)F)ccc2-c2cc(=O)c3cccc(Cl)c3o2)C1` (stereo not shown) [Example 006, 3-[3-[2-(8-chloro-4-oxo-chromen-2-yl)-5-(trifluoromethyl)phenoxy]propylamino]cyclobutanecarboxylic acid]: the IC50 in assay [1] was determined as 4680 nM; in assay [2], 3.82 µM.

For the compound `O=C(O)C1CCC(NCCCOc2cc(C(F)(F)F)ccc2-c2cc(=O)c3cccc(Cl)c3o2)C1` (stereo not shown) [Example 007, 3-[3-[2-(8-chloro-4-oxo-chromen-2-yl)-5-(trifluoromethyl)phenoxy]propylamino]cyclopentanecarboxylic acid], the IC50 in assay [1] worked out at 9500 nM; in assay [2], 4.95 µM.

`O=C(O)[C@@H]1CCN(CCCOc2cc(C(F)(F)F)ccc2-c2cc(=O)c3cccc(Cl)c3o2)C1` [Example 013, (3R)-1-[3-[2-(8-chloro-4-oxo-chromen-2-yl)-5-(trifluoromethyl)phenoxy]propyl]pyrrolidine-3-carboxylic acid]: the values for the IC50 in assay [1] and in assay [2] were 4230 nM and 7.35 µM, respectively.

`O=C(O)[C@H]1CCN(CCCOc2cc(C(F)(F)F)ccc2-c2cc(=O)c3cccc(Cl)c3o2)C1` [Example 014, (3S)-1-[3-[2-(8-chloro-4-oxo-chromen-2-yl)-5-(trifluoromethyl)phenoxy]propyl]pyrrolidine-3-carboxylic acid]: the results for the IC50 in assay [1] and in assay [2] were 370 nM and 5.08 µM, respectively.

For the compound `CCOc1ccc(-c2cc(=O)c3cccc(Cl)c3o2)c(OCCCN2CC[C@H](C(=O)O)C2)c1` [Example 015, (3S)-1-[3-[2-(8-chloro-4-oxo-chromen-2-yl)-5-ethoxy-phenoxy]propyl]pyrrolidine-3-carboxylic acid], the figures for the IC50 in assay [1] and in assay [2] were 7850 nM and 9.75 µM, respectively.

Consider `COc1cc(-c2cc(=O)c3cccc(Cl)c3o2)c(OCCCN2CC[C@@H](C(=O)O)C2)cc1Br` [Example 016, (3R)-1-[3-[5-bromo-2-(8-chloro-4-oxo-chromen-2-yl)-4-methoxy-phenoxy]propyl]pyrrolidine-3-carboxylic acid], for which the IC50 is 890 nM in assay [1] and 7.64 µM in assay [2].

Turning to `COc1cc(-c2cc(=O)c3cccc(Cl)c3o2)c(OCCCN2CC[C@H](C(=O)O)C2)cc1Br` [Example 017, (3S)-1-[3-[5-bromo-2-(8-chloro-4-oxo-chromen-2-yl)-4-methoxy-phenoxy]propyl]pyrrolidine-3-carboxylic acid], the IC50 is 340 nM in assay [1] and 3.42 µM in assay [2].

Regarding `O=C(O)C1CN(CCCOc2cc(C(F)(F)F)ccc2-c2cc(=O)c3cccc(Cl)c3o2)CCO1` (stereo not shown) [Example 018, 4-[3-[2-(8-chloro-4-oxo-chromen-2-yl)-5-(trifluoromethyl)phenoxy]propyl]morpholine-2-carboxylic acid], the IC50 in assay [1] is 410 nM; in assay [2], 5.13 µM.

As to `O=C(O)C1CN(CCOc2cc(Br)ccc2-c2cc(=O)c3cccc(Cl)c3o2)C1` [Example 019, 1-[2-[5-bromo-2-(8-chloro-4-oxo-chromen-2-yl)phenoxy]ethyl]azetidine-3-carboxylic acid], the IC50 in assay [1] was 570 nM; in assay [2], 7.13 µM.

In the case of `O=C(O)C1CCCN1CCOc1cc(Br)ccc1-c1cc(=O)c2cccc(Cl)c2o1` (stereo not shown) [Example 020, 1-[2-[5-bromo-2-(8-chloro-4-oxo-chromen-2-yl)phenoxy]ethyl]pyrrolidine-2-carboxylic acid], the IC50 in assay [1] turned out to be 870 nM; in assay [2] it was 8.36 µM.

In the case of `O=C(O)C1CCN(CCOc2cc(Br)ccc2-c2cc(=O)c3cccc(Cl)c3o2)CC1` [Example 022, 1-[2-[5-bromo-2-(8-chloro-4-oxo-chromen-2-yl)phenoxy]ethyl]piperidine-4-carboxylic acid], the IC50 stood at 1310 nM in assay [1] and 6.8 µM in assay [2].

Regarding `O=C(O)C1CN(CCOc2cc(Br)ccc2-c2cc(=O)c3cccc(Cl)c3o2)CCO1` (stereo not shown) [Example 023, 4-[2-[5-bromo-2-(8-chloro-4-oxo-chromen-2-yl)phenoxy]ethyl]morpholine-2-carboxylic acid], the 50% inhibitory concentration (IC50) was 130 nM in assay [1] and 4.95 µM in assay [2].

Turning to `O=C(O)C1CC2CCC(C1)N2CCOc1cc(Br)ccc1-c1cc(=O)c2cccc(Cl)c2o1` (stereo not shown) [Example 025, 8-[2-[5-bromo-2-(8-chloro-4-oxo-chromen-2-yl)phenoxy]ethyl]-8-azabicyclo[3.2.1]octane-3-carboxylic acid], the results for the IC50 in assay [1] and in assay [2] were 790 nM and 7.63 µM, respectively.

Take `O=C(O)[C@@H]1CCN(CCOc2cc(Br)ccc2-c2cc(=O)c3c(C(F)(F)F)ccc(Cl)c3o2)C1` [Example 041, (3R)-1-[2-[5-bromo-2-[8-chloro-4-oxo-5-(trifluoromethyl)chromen-2-yl]phenoxy]ethyl]pyrrolidine-3-carboxylic acid]: the figures for the IC50 in assay [1] and in assay [2] were 30 nM and 5.48 µM, respectively.

Turning to `O=C(O)[C@H]1CCN(CCOc2cc(Br)ccc2-c2cc(=O)c3c(C(F)(F)F)ccc(Cl)c3o2)C1` [Example 042, (3S)-1-[2-[5-bromo-2-[8-chloro-4-oxo-5-(trifluoromethyl)chromen-2-yl]phenoxy]ethyl]pyrrolidine-3-carboxylic acid], the half-maximal inhibitory concentration (IC50) in assay [1] came out at 50 nM; in assay [2], 7.3 µM.

As for `O=C(O)[C@@H]1CCN(CCOCCOc2cc(Br)ccc2-c2cc(=O)c3cccc(Cl)c3o2)C1` [Example 047, (3R)-1-[2-[2-[5-bromo-2-(8-chloro-4-oxo-chromen-2-yl)phenoxy]ethoxy]ethyl]pyrrolidine-3-carboxylic acid], the IC50 in assay [1] stood at 990 nM; in assay [2], 2.83 µM.

For the compound `O=C(O)C1CN(CCOCCOc2cc(Br)ccc2-c2cc(=O)c3cccc(Cl)c3o2)CCO1` (stereo not shown) [Example 049, 4-[2-[2-[5-bromo-2-(8-chloro-4-oxo-chromen-2-yl)phenoxy]ethoxy]ethyl]morpholine-2-carboxylic acid], the IC50 is 2810 nM in assay [1] and 7.81 µM in assay [2].

Turning to `O=C(O)C1COCCN1CCOc1cc(Br)ccc1-c1cc(=O)c2cccc(Cl)c2o1` (stereo not shown) [Example 052, 4-[2-[5-bromo-2-(8-chloro-4-oxo-chromen-2-yl)phenoxy]ethyl]morpholine-3-carboxylic acid], the figures for the IC50 in assay [1] and in assay [2] were 80 nM and 5.82 µM, respectively.

`CS(=O)(=O)NC(=O)[C@@H]1CCN(CCOc2cc(Br)ccc2-c2cc(=O)c3cccc(Cl)c3o2)C1` [Example 064, (3R)-1-[2-[5-bromo-2-(8-chloro-4-oxo-chromen-2-yl)phenoxy]ethyl]-N-methylsulfonyl-pyrrolidine-3-carboxamide]: the IC50 amounted to 80 nM in assay [1] and 6.41 µM in assay [2].

With `CS(=O)(=O)NC(=O)[C@H]1CCN(CCCOc2cc(C(F)(F)F)ccc2-c2cc(=O)c3cccc(Cl)c3o2)C1` [Example 066, (3S)-1-[3-[2-(8-chloro-4-oxo-chromen-2-yl)-5-(trifluoromethyl)phenoxy]propyl]-N-methylsulfonyl-pyrrolidine-3-carboxamide], the results for the IC50 in assay [1] and in assay [2] were 2790 nM and 9.03 µM, respectively.
